Values quoted from earlier work in paper PMC9804730 (Diabetes, Obesity & Metabolism, 2022).

Assays:
[1] = N- and C-terminal degradation

**Q.** With “(D‐Arg^35)‐sea lamprey PYY (1–36) [SL‐PYY]” as the substance, how does the enzymatic stability [1] read?
**A.** The enzymatic stability was “N‐ and C‐terminally enzyme‐resistant”.

**Q.** What about the “effect on insulin secretion” value of the same substance?
**A.** The value was “insulinostatic”.

**Q.** What about the “effect on blood glucose levels in the acute setting” value (acute setting) of the same substance?
**A.** The value was “does not affect”.
